Where two headings read alike, the source gives them in different places.
Key:
[1] = biological target: T1, SF-1 (Homo sapiens, UniProt Q13285); experiment: SF1 degradation induction in NCI-H295R SF-1-HiBiT cells (HiBiT DC50); format: cell-based; settings: 24 hr, concentration that induces 50% degradation of SF-1
T1 construct: NCI-H295R SF-1-HiBiT cells with HiBiT tag knocked in at the endogenous SF1 locus; host or cells: NCI-H295R SF-1-HiBiT (knock-in at endogenous locus)
Protocol: NCI-H295R SF-1-HiBiT cells were seeded in a 384-well plate (Thermo Fisher Scientific Inc.) at 1×10^4 cells/50 μL/well and cultured at 37° C. in a 5% CO2 incubator for 24 hr. DMSO solutions of each compound were serially diluted with DMSO using a D300e Digital Dispenser (TECAN), added to a 384-well plate, and cultured in a 5% CO2 incubator at 37° C. for 24 hr. […] After completion of culture, the medium was discarded, and Nano-Glo (registered trade mark) HiBiT Lytic Detection System (Promega, Cat. No. N3040) was added at 20 μL/well and stirred with a plate mixer. Luminescence signals were then detected using a multimode plate reader (EnVision Xcite, PerkinElmer). The SF-1 protein degradation rate was calculated from the amount of luminescence (C) in the compound-free group and the amount of luminescence (T) in the compound-added group, based on the following formula.
The obtained data was analyzed using GraphPad Prism9 (GraphPad Software Inc.) or Genedata Screener (Genedata AG) to calculate the concentration that induces 50% degradation of SF-1 (DC50 value).

[2] = system: NCI-H295R cells; experiment: Proliferation inhibitory action on NCI-H295R (CellTiter-Glo, 7 days); format: cell-based, human
Protocol: DMSO solutions of each compound were serially diluted with DMSO using a D300e Digital Dispenser (TECAN), and added to a 384-well plate (Thermo Fisher Scientific Inc.). NCI-H295R cells were seeded in a 384-well plate at 2×10^3 cells/40 μL/well and cultured for 7 days in a 37° C., 5% CO2 incubator. […] On the first day of culture (day 0) and the seventh day of culture (day 7), 10 μL/well of CellTiter-Glo (registered trademark) 2.0 Assay (Promega) was added, and the luminescence signal was detected using a multimode plate reader (EnVision, PerkinElmer). The cell proliferation rate was calculated from the luminescence amount on the day of compound addition (CO), the luminescence amount of the compound-free group after 7 days of culture (C7), and the luminescence amount of the compound-added group (T7), based on the following formula.

Compound | DC50 [1] | GI50 ([2]; Homo sapiens, NCI-H295R, 168 h) | GI50 [2]
COc1ccc([C@]2(CCN(Cc3ccc(C4=CC[C@H](CN5CCN(C(=O)c6ccc7c8c6O[C@@H]6COC[C@@H]6n8c(=O)n7C6CCC(=O)NC6=O)CC5)CC4)cc3)CC(C)(C)C(F)(F)F)CCOC(C)(C)C2)cc1 (relative stereo) [BV10, 3-[(6aS*,9aS*)-5-[(4-{[(4R)-4′-{[{2-[(4R)-4-(4-Methoxyphenyl)-2,2-dimethyltetrahydro-2H-pyran-4-yl]ethyl}(3,3,3-trifluoro-2,2-dimethylpropyl)amino]methyl}-2,3,4,5-tetrahydro[biphenyl]-4-yl]methyl}piperazin-1-yl)carbonyl]-1-oxo-6a, 7,9,9a-tetrahydrofuro[3,4-b]imidazo[1,5,4-de][1,4]benzoxazin-2(1H)-yl]piperidine-2,6-dione] | 14 nM | 123 nM | 
COc1ccc([C@]2(CCN(Cc3ccc(C4=CC[C@H](C(=O)N5CCC(Nc6ccc7c8c6CCCn8c(=O)n7C6CCC(=O)NC6=O)CC5)CC4)c(F)c3)CC(C)(C)C(F)(F)F)CCOC(C)(C)C2)cc1 (single isomer, unassigned) [CG1, (3S) or (3R)-{7-[(1-{[(4R)-2′-Fluoro-4′-{[{2-[(4R)-4-(4-methoxyphenyl)-2,2-dimethyltetrahydro-2H-pyran-4-yl]ethyl}(3,3,3-trifluoro-2,2-dimethylpropyl)amino]methyl}-2,3,4,5-tetrahydro[biphenyl]-4-yl]carbonyl}piperidin-4-yl)amino]-2-oxo-5,6-dihydro-4H-imidazo[4,5,1-ij]quinolin-1(2H)-yl}piperidine-2,6-dione] | 1.8 nM |  | 18 nM
COc1ccc([C@]2(CCN(Cc3ccc(C4=CC[C@H](C(=O)N5CCC(Nc6ccc7c8c6CCCn8c(=O)n7C6CCC(=O)NC6=O)CC5)CC4)c(F)c3)CC(C)(C)C(F)(F)F)CCOC(C)(C)C2)cc1 (single isomer, unassigned) [CH1, (3S) or (3R)-{7-[(1-{[(4R)-2′-Fluoro-4′-{[{2-[(4R)-4-(4-methoxyphenyl)-2,2-dimethyltetrahydro-2H-pyran-4-yl]ethyl}(3,3,3-trifluoro-2,2-dimethylpropyl)amino]methyl}-2,3,4,5-tetrahydro[biphenyl]-4-yl]carbonyl}piperidin-4-yl)amino]-2-oxo-5,6-dihydro-4H-imidazo[4,5,1-ij]quinolin-1(2H)-yl}piperidine-2,6-dione] | 2.8 nM |  | 25 nM
Cn1c(=O)n(C2CCC(=O)NC2=O)c2ccc(C(=O)N3CCN(CC4CC=C(c5ccc(CN(CC[C@@]6(c7ccc(OC(F)F)cc7)CCOC(C)(C)C6)CC(C)(C)C(F)(F)F)cc5)CC4)CC3)cc21 (stereo partly drawn) [AM10, 3-[5-({4-[(4′-{[(2-{(4R)-4-[4-(Difluoromethoxy)phenyl]-2,2-dimethyltetrahydro-2H-pyran-4-yl}ethyl) (3,3,3-trifluoro-2,2-dimethylpropyl)amino]methyl}-2,3,4,5-tetrahydro[biphenyl]-4-yl)methyl]piperazin-1-yl}carbonyl)-3-methyl-2-oxo-2,3-dihydro-1H-benzimidazol-1-yl]piperidine-2,6-dione] | 7.3 nM | 106 nM | 
COc1ccc([C@]2(CCN(Cc3ccc(OC4CC5(CCN(CC(=O)N6CCn7c(=O)n(C8CCC(=O)NC8=O)c8cccc6c87)CC5)C4)cc3)CC(C)(C)C(F)(F)F)CCOC(C)(C)C2)cc1 (stereo partly drawn) [AN5, 3-[6-{[2-(4-{[{2-[(4R)-4-(4-Methoxyphenyl)-2,2-dimethyltetrahydro-2H-pyran-4-yl]ethyl}(3,3,3-trifluoro-2,2-dimethylpropyl)amino]methyl}phenoxy)-7-azaspiro[3.5]nonan-7-yl]acetyl}-2-oxo-5,6-dihydro-4H-imidazo[1,5,4-de]quinoxalin-1(2H)-yl]piperidine-2,6-dione] | 12 nM | 92 nM | 
COc1ccc([C@]2(CCN(Cc3ccc(C4=CC[C@H](CN5CCN(C(=O)c6ccc7c(c6)n(C)c(=O)n7[C@@H]6CCC(=O)NC6=O)CC5)CC4)cc3)CC(C)(C)C(F)(F)F)CCOC(C)(C)C2)cc1 [AO7, (3R)-3-{5-[(4-{[(4R)-4′-{[{2-[(4R)-4-(4-Methoxyphenyl)-2,2-dimethyltetrahydro-2H-pyran-4-yl]ethyl}(3,3,3-trifluoro-2,2-dimethylpropyl)amino]methyl}-2,3,4,5-tetrahydro[biphenyl]-4-yl]methyl}piperazin-1-yl)carbonyl]-3-methyl-2-oxo-2,3-dihydro-1H-benzimidazol-1-yl}piperidine-2,6-dione] | 5.4 nM | 39 nM | 
COc1ccc([C@]2(CCN(Cc3ccc(C4=CC[C@H](CN5CCN(C(=O)c6ccc7c(c6)n(C)c(=O)n7[C@H]6CCC(=O)NC6=O)CC5)CC4)cc3)CC(C)(C)C(F)(F)F)CCOC(C)(C)C2)cc1 [AP6, (3S)-3-{5-[(4-{[(4R)-4′-{[{2-[(4R)-4-(4-Methoxyphenyl)-2,2-dimethyltetrahydro-2H-pyran-4-yl]ethyl}(3,3,3-trifluoro-2,2-dimethylpropyl)amino]methyl}-2,3,4,5-tetrahydro[biphenyl]-4-yl]methyl}piperazin-1-yl)carbonyl]-3-methyl-2-oxo-2,3-dihydro-1H-benzimidazol-1-yl}piperidine-2,6-dione] | 4.1 nM | 68 nM | 
COc1ccc([C@]2(CCN(Cc3ccc(OC4CC5(CCN(CC(=O)Nc6ccc7c(c6)C(=O)N(C6CCC(=O)NC6=O)C7=O)CC5)C4)cc3)CC(C)(C)C(F)(F)F)CCOC(C)(C)C2)cc1 (stereo partly drawn) [AQ1, N-[2-(2,6-Dioxopiperidin-3-yl)-1,3-dioxo-2,3-dihydro-1H-isoindol-5-yl]-2-[2-(4-{[{2-[(4R)-4-(4-methoxyphenyl)-2,2-dimethyltetrahydro-2H-pyran-4-yl]ethyl}(3,3,3-trifluoro-2,2-dimethylpropyl)amino]methyl}phenoxy)-7-azaspiro[3.5]nonan-7-yl]acetamide] | 56 nM | 286 nM | 
COc1ccc([C@]2(CCN(Cc3ccc(C4=CCC(CN5CCN(C(=O)c6ccc7c(c6)n(C)c(=O)n7C6CCC(=O)NC6=O)CC5)CC4)cc3)CC3(C(F)(F)F)CCC3)CCOC(C)(C)C2)cc1 (stereo partly drawn) [AR7, 3-(5-{[4-({4′-[({2-[(4R)-4-(4-Methoxyphenyl)-2,2-dimethyltetrahydro-2H-pyran-4-yl]ethyl}{[1-(trifluoromethyl)cyclobutyl]methyl}amino)methyl]-2,3,4,5-tetrahydro[biphenyl]-4-yl}methyl)piperazin-1-yl]carbonyl}-3-methyl-2-oxo-2,3-dihydro-1H-benzimidazol-1-yl)piperidine-2,6-dione] | 6.5 nM | 82 nM | 
COc1ccc([C@]2(CCN(Cc3ccc(C4=CCC(C(=O)N5CCN(Cc6ccc7c(c6)n(C)c(=O)n7C6CCC(=O)NC6=O)CC5)CC4)c(C)c3)CC(C)(C)C(F)(F)F)CCOC(C)(C)C2)cc1 (stereo partly drawn) [AS7, 3-[5-({4-[(4′-{[{2-[(4R)-4-(4-Methoxyphenyl)-2,2-dimethyltetrahydro-2H-pyran-4-yl]ethyl)(3,3,3-trifluoro-2,2-dimethylpropyl)amino]methyl}-2′-methyl-2,3,4,5-tetrahydro[biphenyl]-4-yl)carbonyl]piperazin-1-yl}methyl)-3-methyl-2-oxo-2,3-dihydro-1H-benzimidazol-1-yl]piperidine-2,6-dione] | 4.1 nM | 56 nM | 

— US12606533B2, “3-phenylpropylamine derivative” (DAIICHI SANKYO COMPANY, LIMITED, priority 2023, dated 2026)
